Source: ChEMBL document CHEMBL1201862, “PubChem BioAssay data set” (2004)
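Tested at 5 concentrations; 48 h exposure; 96-well plates; endpoints linearly interpolated, else capped at highest concentration. At the GI50, growth is halved.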 Calls of active or inactive are those of the source. No stated cut-off is given here; in the data, active = GI50 up to about 1.1 µM and inactive = higher.

Columns and labels:
Assay in all cases: DTP human tumour cell line panel, 48 h
A498 = test system: A498
MDA-MB-231 = test system: MDA-MB-231
BT-549 = test system: BT-549
SF-295 = test system: SF-295
SF-539 = test system: SF-539
MCF7 = test system: MCF7
UO-31 = test system: UO-31
Hs-578T = test system: Hs-578T
MDA-N = test system: MDA-N
HL-60 = test system: HL-60
NCI-H226 = test system: NCI-H226
CAKI-1 = test system: CAKI-1
OVCAR-3 = test system: OVCAR-3
OVCAR-5 = test system: OVCAR-5
HOP-92 = test system: HOP-92
RXF 393 = test system: RXF 393
HT-29 = test system: HT-29
SW-620 = test system: SW-620
HCT-116 = test system: HCT-116
Malme-3M = test system: Malme-3M
RPMI-8226 = test system: RPMI-8226
SK-MEL-28 = test system: SK-MEL-28
NCI-H23 = test system: NCI-H23
CCRF-CEM = test system: CCRF-CEM
EKVX = test system: EKVX
ACHN = test system: ACHN
HOP-62 = test system: HOP-62
SR = test system: SR
SNB-75 = test system: SNB-75
HCT-15 = test system: HCT-15
DU-145 = test system: DU-145
TK-10 = test system: TK-10
IGROV-1 = test system: IGROV-1
NCI-H522 = test system: NCI-H522
LOX IMVI = test system: LOX IMVI
MDA-MB-435 = test system: MDA-MB-435
SN12C = test system: SN12C
786-0 = test system: 786-0
PC-3 = test system: PC-3
KM12 = test system: KM12
NCI/ADR-RES = test system: NCI/ADR-RES
SK-MEL-2 = test system: SK-MEL-2
U-251 = test system: U-251
SK-OV-3 = test system: SK-OV-3
SF-268 = test system: SF-268
K562 = test system: K562
HCC 2998 = test system: HCC 2998
A549 = test system: A549
UACC-62 = test system: UACC-62
MOLT-4 = test system: MOLT-4
NCI-H460 = test system: NCI-H460
UACC-257 = test system: UACC-257
OVCAR-4 = test system: OVCAR-4
T47D = test system: T47D
M14 = test system: M14
OVCAR-8 = test system: OVCAR-8
COLO 205 = test system: COLO 205
SNB-19 = test system: SNB-19
SK-MEL-5 = test system: SK-MEL-5

C/C(=C\c1csc(C)n1)[C@@H]1C[C@@H]2O[C@]2(C)CCC[C@H](C)[C@H](O)[C@@H](C)C(=O)C(C)(C)[C@@H](O)CC(=O)O1 [PATUPILONE]
GI50 (A498): < 0.0001 µM (active)
GI50 (MDA-MB-231): < 0.0001 µM (active)
GI50 (BT-549): < 0.0001 µM (active)
GI50 (SF-295): < 0.0001 µM (active)
GI50 (SF-539): < 0.0001 µM (active)
GI50 (MCF7): < 0.0001 µM (active)
GI50 (UO-31): < 0.0001 µM (active)
GI50 (Hs-578T): < 0.0001 µM (active)
GI50 (MDA-N): < 0.0001 µM (active)
GI50 (HL-60): < 0.0001 µM (active)
GI50 (NCI-H226): < 0.0001 µM (active)
GI50 (CAKI-1): < 0.0001 µM (active)
GI50 (OVCAR-3): < 0.0001 µM (active)
GI50 (OVCAR-5): < 0.0001 µM (active)
GI50 (HOP-92): < 0.0001 µM (active)
GI50 (RXF 393): < 0.0001 µM (active)
GI50 (HT-29): < 0.0001 µM (active)
GI50 (SW-620): < 0.0001 µM (active)
GI50 (HCT-116): < 0.0001 µM (active)
GI50 (Malme-3M): 0.01 µM (active)
GI50 (RPMI-8226): < 0.0001 µM (active)
GI50 (SK-MEL-28): < 0.0001 µM (active)
GI50 (NCI-H23): < 0.0001 µM (active)
GI50 (CCRF-CEM): < 0.0001 µM (active)
GI50 (EKVX): < 0.0001 µM (active)
GI50 (ACHN): < 0.0001 µM (active)
GI50 (HOP-62): < 0.0001 µM (active)
GI50 (SR): < 0.0001 µM (active)
GI50 (SNB-75): < 0.0001 µM (active)
GI50 (HCT-15): < 0.0001 µM
GI50 (DU-145): < 0.0001 µM (active)
GI50 (TK-10): < 0.0001 µM (active)
GI50 (IGROV-1): < 0.0001 µM (active)
GI50 (NCI-H522): < 0.0001 µM (active)
GI50 (LOX IMVI): < 0.0001 µM (active)
GI50 (MDA-MB-435): < 0.0001 µM (active)
GI50 (SN12C): < 0.0001 µM (active)
GI50 (786-0): < 0.0001 µM (active)
GI50 (PC-3): < 0.0001 µM (active)
GI50 (KM12): < 0.0001 µM (active)
GI50 (NCI/ADR-RES): < 0.0001 µM (active)
GI50 (SK-MEL-2): < 0.0001 µM (active)
GI50 (U-251): < 0.0001 µM (active)
GI50 (SK-OV-3): < 0.0001 µM (active)
GI50 (SF-268): < 0.0001 µM (active)
GI50 (K562): < 0.0001 µM (active)
GI50 (HCC 2998): < 0.0001 µM (active)
GI50 (A549): < 0.0001 µM (active)
GI50 (UACC-62): < 0.0001 µM (active)
GI50 (MOLT-4): < 0.0001 µM (active)
GI50 (NCI-H460): < 0.0001 µM (active)
GI50 (UACC-257): < 0.0001 µM (active)
GI50 (OVCAR-4): 0.000458 µM (active)
GI50 (T47D): < 0.0001 µM (active)
GI50 (M14): < 0.0001 µM (active)
GI50 (OVCAR-8): < 0.0001 µM (active)
GI50 (COLO 205): < 0.0001 µM (active)
GI50 (SNB-19): < 0.0001 µM (active)
GI50 (SK-MEL-5): < 0.0001 µM (active)

COc1cc(CNCc2cc(OC)c(OC)c(OC)c2)cc(OC)c1OC
GI50 (A498): > 10 µM (inactive)
GI50 (MDA-MB-231): > 10 µM (inactive)
GI50 (BT-549): > 10 µM (inactive)
GI50 (SF-295): > 10 µM (inactive)
GI50 (SF-539): > 10 µM (inactive)
GI50 (MCF7): > 10 µM (inactive)
GI50 (UO-31): > 10 µM (inactive)
GI50 (Hs-578T): > 10 µM (inactive)
GI50 (MDA-N): > 10 µM (inactive)
GI50 (HL-60): > 4.62 µM (inactive)
GI50 (NCI-H226): > 10 µM (inactive)
GI50 (CAKI-1): > 10 µM (inactive)
GI50 (OVCAR-3): > 10 µM (inactive)
GI50 (OVCAR-5): > 10 µM (inactive)
GI50 (HOP-92): > 6.07 µM (inactive)
GI50 (RXF 393): > 10 µM (inactive)
GI50 (HT-29): > 10 µM (inactive)
GI50 (SW-620): > 10 µM (inactive)
GI50 (HCT-116): > 10 µM (inactive)
GI50 (Malme-3M): > 10 µM (inactive)
GI50 (RPMI-8226): 9.73 µM (inactive)
GI50 (SK-MEL-28): > 10 µM (inactive)
GI50 (NCI-H23): > 10 µM (inactive)
GI50 (CCRF-CEM): 2.37 µM (inactive)
GI50 (EKVX): > 10 µM (inactive)
GI50 (ACHN): > 10 µM (inactive)
GI50 (HOP-62): > 10 µM (inactive)
GI50 (SR): > 5.38 µM (inactive)
GI50 (SNB-75): > 8.38 µM (inactive)
GI50 (HCT-15): > 10 µM
GI50 (DU-145): > 10 µM (inactive)
GI50 (TK-10): > 10 µM (inactive)
GI50 (IGROV-1): > 10 µM (inactive)
GI50 (NCI-H522): > 4.88 µM (inactive)
GI50 (LOX IMVI): > 8.38 µM (inactive)
GI50 (MDA-MB-435): > 10 µM (inactive)
GI50 (SN12C): > 10 µM (inactive)
GI50 (786-0): > 10 µM (inactive)
GI50 (PC-3): > 10 µM (inactive)
GI50 (KM12): > 10 µM (inactive)
GI50 (NCI/ADR-RES): > 10 µM (inactive)
GI50 (SK-MEL-2): > 10 µM (inactive)
GI50 (U-251): > 10 µM (inactive)
GI50 (SK-OV-3): > 10 µM (inactive)
GI50 (SF-268): > 10 µM (inactive)
GI50 (K562): > 4.95 µM (inactive)
GI50 (HCC 2998): > 10 µM (inactive)
GI50 (A549): > 10 µM (inactive)
GI50 (UACC-62): > 10 µM (inactive)
GI50 (MOLT-4): > 5.7 µM (inactive)
GI50 (NCI-H460): > 10 µM (inactive)
GI50 (UACC-257): > 10 µM (inactive)
GI50 (OVCAR-4): > 10 µM (inactive)
GI50 (T47D): > 10 µM (inactive)
GI50 (M14): > 10 µM (inactive)
GI50 (OVCAR-8): > 10 µM (inactive)
GI50 (COLO 205): > 10 µM (inactive)
GI50 (SNB-19): > 10 µM (inactive)
GI50 (SK-MEL-5): > 10 µM (inactive)
